From ChEMBL document CHEMBL1201862, “PubChem BioAssay data set” (2004)
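Values below derive from 48-hour exposures of cells grown in 96-well plates, with endpoints linearly interpolated between the two concentrations bracketing the appropriate inhibition level. GI50 = concentration required for 50% inhibition of growth.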 Activity calls are given as the source filed them. Rule as the data show it: active = GI50 up to about 1.1 µM and inactive = higher.

Columns and labels:
Test in all cases: NCI tumour cell line growth inhibition, 48 h
HCT-116 = tested on: HCT-116
SW-620 = tested on: SW-620
UO-31 = tested on: UO-31
SK-OV-3 = tested on: SK-OV-3
XF498 = tested on: XF498
KM12 = tested on: KM12
SNB-78 = tested on: SNB-78
KM-20L2 = tested on: KM-20L2
OVCAR-8 = tested on: OVCAR-8
ACHN = tested on: ACHN
RPMI-8226 = tested on: RPMI-8226
CAKI-1 = tested on: CAKI-1
K562 = tested on: K562
M19-MEL = tested on: M19-MEL
HCT-15 = tested on: HCT-15
OVCAR-4 = tested on: OVCAR-4
TK-10 = tested on: TK-10
SK-MEL-28 = tested on: SK-MEL-28
SR = tested on: SR
DLD-1 = tested on: DLD-1
OVCAR-3 = tested on: OVCAR-3
U-251 = tested on: U-251
786-0 = tested on: 786-0
SK-MEL-2 = tested on: SK-MEL-2
MOLT-4 = tested on: MOLT-4
HOP-18 = tested on: HOP-18
SNB-75 = tested on: SNB-75
UACC-62 = tested on: UACC-62
NCI-H460 = tested on: NCI-H460
HOP-92 = tested on: HOP-92
NCI-H226 = tested on: NCI-H226
SF-295 = tested on: SF-295
EKVX = tested on: EKVX
DMS-273 = tested on: DMS-273
OVCAR-5 = tested on: OVCAR-5
HCC 2998 = tested on: HCC 2998
HL-60 = tested on: HL-60
A549 = tested on: A549
LOX IMVI = tested on: LOX IMVI
SNB-19 = tested on: SNB-19
HOP-62 = tested on: HOP-62
CCRF-CEM = tested on: CCRF-CEM
DMS-114 = tested on: DMS-114
HT-29 = tested on: HT-29
M14 = tested on: M14
UACC-257 = tested on: UACC-257
SF-268 = tested on: SF-268
NCI-H23 = tested on: NCI-H23
Malme-3M = tested on: Malme-3M
RXF 393 = tested on: RXF 393
COLO 205 = tested on: COLO 205
SF-539 = tested on: SF-539
NCI-H522 = tested on: NCI-H522
SK-MEL-5 = tested on: SK-MEL-5
SN12C = tested on: SN12C
LXFL 529 = tested on: LXFL 529
A498 = tested on: A498
IGROV-1 = tested on: IGROV-1

N#C/C(=C/c1ccsc1)C(=O)c1ccccc1
GI50 (HCT-116): > 100 µM (inactive)
GI50 (SW-620): > 100 µM (inactive)
GI50 (UO-31): > 100 µM (inactive)
GI50 (SK-OV-3): > 100 µM (inactive)
GI50 (XF498): > 100 µM (inactive)
GI50 (KM12): > 100 µM (inactive)
GI50 (SNB-78): > 100 µM (inactive)
GI50 (KM-20L2): > 100 µM (inactive)
GI50 (OVCAR-8): > 100 µM (inactive)
GI50 (ACHN): > 100 µM (inactive)
GI50 (RPMI-8226): > 100 µM (inactive)
GI50 (CAKI-1): > 100 µM (inactive)
GI50 (K562): > 100 µM (inactive)
GI50 (M19-MEL): > 100 µM (inactive)
GI50 (HCT-15): > 100 µM
GI50 (OVCAR-4): > 100 µM (inactive)
GI50 (TK-10): > 100 µM (inactive)
GI50 (SK-MEL-28): > 100 µM (inactive)
GI50 (SR): > 100 µM (inactive)
GI50 (DLD-1): > 100 µM (inactive)
GI50 (OVCAR-3): > 100 µM (inactive)
GI50 (U-251): > 100 µM (inactive)
GI50 (786-0): > 100 µM (inactive)
GI50 (SK-MEL-2): > 100 µM (inactive)
GI50 (MOLT-4): > 100 µM (inactive)
GI50 (HOP-18): > 100 µM (inactive)
GI50 (SNB-75): > 100 µM (inactive)
GI50 (UACC-62): > 100 µM (inactive)
GI50 (NCI-H460): > 100 µM (inactive)
GI50 (HOP-92): > 100 µM (inactive)
GI50 (NCI-H226): > 100 µM (inactive)
GI50 (SF-295): > 100 µM (inactive)
GI50 (EKVX): > 100 µM (inactive)
GI50 (DMS-273): > 100 µM (inactive)
GI50 (OVCAR-5): > 100 µM (inactive)
GI50 (HCC 2998): > 100 µM (inactive)
GI50 (HL-60): > 100 µM (inactive)
GI50 (A549): > 100 µM (inactive)
GI50 (LOX IMVI): > 100 µM (inactive)
GI50 (SNB-19): > 100 µM (inactive)
GI50 (HOP-62): > 100 µM (inactive)
GI50 (CCRF-CEM): > 100 µM (inactive)
GI50 (DMS-114): > 100 µM (inactive)
GI50 (HT-29): > 100 µM (inactive)
GI50 (M14): > 100 µM (inactive)
GI50 (UACC-257): > 100 µM (inactive)
GI50 (SF-268): > 100 µM (inactive)
GI50 (NCI-H23): > 100 µM (inactive)
GI50 (Malme-3M): > 100 µM (inactive)
GI50 (RXF 393): > 100 µM (inactive)
GI50 (COLO 205): > 100 µM (inactive)
GI50 (SF-539): > 100 µM (inactive)
GI50 (NCI-H522): > 100 µM (inactive)
GI50 (SK-MEL-5): > 100 µM (inactive)
GI50 (SN12C): > 100 µM (inactive)
GI50 (LXFL 529): > 100 µM (inactive)

O=C(/C=C/C1C(=O)NC(=O)NC1=O)CC(=O)C(=O)Nc1cc(Cl)c(Cl)cc1Cl
GI50 (HCT-116): > 100 µM (inactive)
GI50 (SW-620): > 100 µM (inactive)
GI50 (UO-31): > 100 µM (inactive)
GI50 (SK-OV-3): > 100 µM (inactive)
GI50 (XF498): > 100 µM (inactive)
GI50 (KM12): > 100 µM (inactive)
GI50 (SNB-78): > 100 µM (inactive)
GI50 (KM-20L2): > 100 µM (inactive)
GI50 (OVCAR-8): > 100 µM (inactive)
GI50 (ACHN): > 100 µM (inactive)
GI50 (RPMI-8226): > 100 µM (inactive)
GI50 (CAKI-1): > 100 µM (inactive)
GI50 (K562): > 100 µM (inactive)
GI50 (M19-MEL): > 100 µM (inactive)
GI50 (HCT-15): > 100 µM
GI50 (OVCAR-4): > 100 µM (inactive)
GI50 (TK-10): > 100 µM (inactive)
GI50 (SK-MEL-28): > 100 µM (inactive)
GI50 (SR): > 100 µM (inactive)
GI50 (DLD-1): > 100 µM (inactive)
GI50 (OVCAR-3): > 100 µM (inactive)
GI50 (U-251): > 100 µM (inactive)
GI50 (786-0): > 100 µM (inactive)
GI50 (SK-MEL-2): > 100 µM (inactive)
GI50 (MOLT-4): > 100 µM (inactive)
GI50 (HOP-18): > 100 µM (inactive)
GI50 (SNB-75): > 100 µM (inactive)
GI50 (UACC-62): > 100 µM (inactive)
GI50 (NCI-H460): > 100 µM (inactive)
GI50 (NCI-H226): > 100 µM (inactive)
GI50 (SF-295): > 100 µM (inactive)
GI50 (EKVX): > 100 µM (inactive)
GI50 (DMS-273): > 100 µM (inactive)
GI50 (OVCAR-5): > 100 µM (inactive)
GI50 (HCC 2998): > 100 µM (inactive)
GI50 (HL-60): > 100 µM (inactive)
GI50 (A549): > 100 µM (inactive)
GI50 (LOX IMVI): > 100 µM (inactive)
GI50 (SNB-19): > 100 µM (inactive)
GI50 (HOP-62): > 100 µM (inactive)
GI50 (CCRF-CEM): > 100 µM (inactive)
GI50 (DMS-114): > 100 µM (inactive)
GI50 (HT-29): > 100 µM (inactive)
GI50 (M14): > 100 µM (inactive)
GI50 (A498): > 100 µM (inactive)
GI50 (UACC-257): > 100 µM (inactive)
GI50 (SF-268): > 100 µM (inactive)
GI50 (NCI-H23): > 100 µM (inactive)
GI50 (Malme-3M): > 100 µM (inactive)
GI50 (RXF 393): > 100 µM (inactive)
GI50 (COLO 205): > 100 µM (inactive)
GI50 (SF-539): > 100 µM (inactive)
GI50 (NCI-H522): > 100 µM (inactive)
GI50 (SK-MEL-5): > 100 µM (inactive)
GI50 (SN12C): > 100 µM (inactive)
GI50 (IGROV-1): > 100 µM (inactive)
GI50 (LXFL 529): > 100 µM (inactive)
